The values that follow come from US4895589A, “Heterocyclic compounds” (Imperial Chemical Industries PLC, priority 1985, dated 1990).

Test [1] deals with Apples. Briefly: Intermediate Retardant Test, apples. It is filed as in vivo, Apples (Red Delicious). Particulars: 672 h, ~28 days, Table IX, read-out: Percentage Reduction in Height of Apples (Compared to formulation blank). The procedure, abridged: (§1)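 Overall spray at 1000 ppm and 4000 ppm (1 and 4 kg ha^-1, 1000 l/ha), giving foliar plus root exposure; rice in flooded paddy pots, barley and apples in 4" pots. Height measured ~28 days after treatment (ligule for cereals, apex for apples), reported as % reduction versus formulation blank.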

For test [2], the system named is Maize. Particulars: MZ, 4000 ppm, 2-3 weeks.
Procedure: (§2) The compounds were tested for plant growth regulator activity against up to tweleve plant species for various growth effects relevant to plant growth regulation.
(§3) Each chemical was applied at 4000 ppm (4 kg/ha in a 1000 l/ha field volume) using a tracksprayer and a SS8004E (Teejet) nozzle.
(§4) After spray, the plants were grown in a glasshouse with 25° C. day/22° C. night temperatures and supplementary lighting was supplied when necessary (from mercury vapour lamps), to provide a 16 hour photoperiod. The exception to this were the temperate cereals, wheat and barley, which were grown in 16° C. day 13° C. night temperatures
(§5) After 2-3 weeks in the glasshouse, depending on the time of year, the plants were visually assessed for morphological characteristics. Formulations blanks were used as controls to assess the Plants.
Test [3] deals with Wheat. Particulars: WW, 4000 ppm, 2-3 weeks.
Procedure: as §2, §3, §4, §5
Test [4] deals with Soya. As to conditions: SY, 4000 ppm, 2-3 weeks.
Procedure: as §2, §3, §4, §5
Test [5] deals with Tomato. As to conditions: TO, 4000 ppm, 2-3 weeks.
Procedure: as §2, §3, §4, §5
In test [6] the test system is Lettuce. Particulars: LT, 4000 ppm, 2-3 weeks.
Test [7] concerns Sugar beet. Particulars: SB, 4000 ppm, 2-3 weeks.
Procedure: as §2, §3, §4, §5
For test [8], the system named is Spring Barley. Kind of test: Intermediate Retardant Test, spring barley. The class given is in vivo, Spring Barley (Atem/kym). Particulars: Hordeum vulgare, 672 h, ~28 days, Table VIII, read-out: Percentage Reduction in Height of Spring Barley (Compared to formulation blank). Put shortly:
as §1

Test [9] has as its system Rice. Briefly: Intermediate Retardant Test, rice. The class given is in vivo, Rice (Ishikari). Particulars: Oryza sativa, 672 h, ~28 days, Table VII, read-out: Percentage Reduction in Height of Rice (Compared to formulation blank). Put shortly:
as §1

In test [10] the test system is Cynosurus cristatus. As to conditions: CC, 4000 ppm, 2-3 weeks.
Procedure: as §2, §3, §4, §5
The test system of test [11] is plant species of Whole Plant Screen (1) or (2). Kind of test: Across screen comparison: total retardation relative to paclobutrazol (Whole Plant Screens (1) and (2)). It is filed as in vivo. Particulars: compounds of Table I, Table X. The procedure, abridged:
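Compounds, each tested in Whole Plant Screen (1) or (2), are compared by summing retardation scores over all species tested. Each total is expressed as a percentage of the total retardation from paclobutrazol, the standard run in every test.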

Test [12] concerns Agrostis tenius. As to conditions: AT, 4000 ppm, 2-3 weeks.
Procedure: as §2, §3, §4, §5
Test [13] deals with Radish. As to conditions: RA, 4000 ppm, 2-3 weeks.
Procedure: as §2, §3, §4, §5
For test [14], the system named is Barley. Particulars: BR, 4000 ppm, 2-3 weeks.
Procedure: as §2, §3, §4, §5
Test [15] has as its system Dacrylis glomerata. Particulars: DA, 4000 ppm, 2-3 weeks.
Procedure: as §2, §3, §4, §5
Test [16] relates to Vines. Particulars: VN, 4000 ppm, 2-3 weeks.
Procedure: as §2, §3, §4, §5

In the case of `CCCCC#CC(Cn1cncn1)(OC)C(C)(C)C` (centres unmarked) [Compound 2], in [1], the percent reduction in plant height vs formulation blank at 4000 ppm was 12.3%. Besides, the “Retardation score (1-3) with greening (G), apical damage (A), tillering/side shooting (T)” value (“Retardation score … tillering/side shooting (T)” for short) in test [2] is 2GA; in [3] it was 2G; in test [4] it was 3GT; in [5], 1G; in test [6], 1 (10-30% retardation); in test [7], 1G. Moreover, the “Retardation score … tillering/side shooting (T)” value in test [10] is 1G. Moreover, the height reduction vs blank at 1000 ppm in test [8] stood at 0.2%. Moreover, the height reduction vs blank at 4000 ppm in [8] was 25.6%. For the same compound, in test [9], the Percent reduction in rice plant height vs formulation blank at 1000 ppm was 17.4%. In addition, the Percent reduction in rice plant height vs formulation blank at 4000 ppm in [9] stood at 34.6%.
Regarding `CCCCCC#CC(O)(Cn1cncn1)C(C)(C)C` (centres unmarked) [Compound 3, 2,2-dimethyl-3-hydroxy-3-(hept-1-yne-1-yl)-4-(1,2,4-triazol-1-yl)-butane], the “Total Retardation expressed as a percentage of the total retardation caused by paclobutrazol” value in [11] is reported as 65.6 % of paclobutrazol. Moreover, in test [1], the percent reduction in plant height vs formulation blank at 1000 ppm amounted to 9.5%. For the same compound, the percent reduction in plant height vs formulation blank at 4000 ppm in test [1] is 25.9%. Further, the “Retardation score … tillering/side shooting (T)” value in [2] is 1G; in test [12] it was 2G; in test [3], 2GT; in [4], 3GA; in test [13] it was 3 (61-100% retardation); in test [5] it was 2G. Moreover, the “Retardation score … tillering/side shooting (T)” value is 1T in [14]; 1G in [7]; 2G in test [15]; 2GAT in [16]; 2G in [10]. Besides, the height reduction vs blank at 1000 ppm in test [8] was determined as 18.5%. Also, in test [8], the height reduction vs blank at 4000 ppm was 34.7%. The Percent reduction in rice plant height vs formulation blank at 1000 ppm in test [9] is 21.2%. Also, the Percent reduction in rice plant height vs formulation blank at 4000 ppm in test [9] turned out to be 40.8%.
Consider `CCC(C)C#CC(O)(Cn1cncn1)C(C)(C)C` (centres unmarked) [Compound 6, 2,2-dimethyl-3-hydroxy-3-(3-methyl-pent-1-yne-1-yl)-4-(1,2,4-triazol-1-yl)-butane], for which the “Total Retardation expressed as a percentage of the total retardation caused by paclobutrazol” value in [11] was 52.0 % of paclobutrazol. Further, the percent reduction in plant height vs formulation blank at 1000 ppm in [1] came out at 1.2%. In [1], the percent reduction in plant height vs formulation blank at 4000 ppm was found to be 38.6%. The “Retardation score … tillering/side shooting (T)” value in test [12] is reported as 1 (10-30% retardation); in test [3] it was 3GT; in test [4] it was 2GA; in test [5] it was 1G; in [6] it was 1G; in test [14], 2G. Besides, the “Retardation score … tillering/side shooting (T)” value is given as 1G in test [7], 1 (10-30% retardation) in test [15], 2GT in [16] and 1 (10-30% retardation) in test [10]. Also, the height reduction vs blank at 1000 ppm in [8] was 0.8%. The height reduction vs blank at 4000 ppm in test [8] came out at 23.5%. Moreover, the Percent reduction in rice plant height vs formulation blank at 1000 ppm in [9] came to 11.2%. Also, in test [9], the Percent reduction in rice plant height vs formulation blank at 4000 ppm stood at 22.7%.
Consider `CC(C)CCC#CC(O)(Cn1cncn1)C(C)(C)C` (centres unmarked) [Compound 8, 2,2-dimethyl-3-hydroxy-3-(5-methyl-hex-1-yne-1-yl)-4-(1,2,4-triazol-1-yl)-butane], for which the “Total Retardation expressed as a percentage of the total retardation caused by paclobutrazol” value in test [11] is recorded as 60.0 % of paclobutrazol. In test [1], the percent reduction in plant height vs formulation blank at 1000 ppm is 7.5%. Also, the percent reduction in plant height vs formulation blank at 4000 ppm in [1] amounted to 26%. Also, the “Retardation score … tillering/side shooting (T)” value in [2] is listed as 1G; in test [12] it was 1G; in test [3], 3GT; in [4], 3G; in [13], 3G; in test [5], 2G. For the same compound, the “Retardation score … tillering/side shooting (T)” value in test [6] is listed as 1G; in test [14] it was 1T; in [15] it was 1G; in test [16] it was 1 (10-30% retardation); in test [10] it was 2G. In addition, the height reduction vs blank at 1000 ppm in test [8] was determined as 39.6%. Moreover, the height reduction vs blank at 4000 ppm in test [8] came to 65.8%. In addition, the Percent reduction in rice plant height vs formulation blank at 1000 ppm in test [9] amounted to 26.6%. In test [9], the Percent reduction in rice plant height vs formulation blank at 4000 ppm was determined as 47.7%.
